{"source": "paper PMC8952364", "about": "“Polyphenols as Inhibitors of Antibiotic Resistant Bacteria—Mechanisms Underlying Rutin Interference with Bacterial Virulence” (Pharmaceuticals, 2022)", "key": {"P. aeruginosa IBRS P001 [1]": {"test_system": "P. aeruginosa IBRS P001", "test": "Bacterial adhesion to HaCaT cells", "format": "cell-based, Pseudomonas aeruginosa", "procedure": "HaCaT cells were grown until confluence in 24-well plates with an adhesive bottom. The medium was removed and DMEM without FBS containing the rutin (MIC and 0.5 MIC) was added. The samples were incubated at 37 °C for 15 min, and bacteria (P. aeruginosa IBRS P001 and MRSA IBRS MRSA 011) were added. After incubation at 37 °C for 1 h, the cells were washed three times with DMEM without FBS and lyzed with 1 mL of 1% (v/v) Tween-20 (SigmaAldrich, Germany) at 37 °C for 30 min. Afterwards, dilutions of the bacterial suspension in each well were made and seeded on Plate Count Agar plates. The number of CFU was determined after incubation at 37 °C for 18 h, and the percentage of adhered bacterial cells was calculated following the equation:% (adhesion relative to the control) = 100 × CFU (treated)/CFU (control)\nWith CFU (treated) representing the number of CFUs after the treatment of cells with rutin and CFU (control) representing the number of bacterial CFUs in the untreated sample. The solvent treated sample was used as the control."}, "K. pneumoniae Ni9": {"test_system": "K. pneumoniae Ni9", "test": "Antimicrobial microdilution assay (MIC/MBC)", "format": "cell-based, Klebsiella pneumoniae", "conditions": "Klebsiella pneumoniae, NI9", "summary_of_the_method": "(§1)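 Polyphenols 0.0039–1 mg/mL, stocks in 30% ethanol; inoculum 0.5 McFarland diluted twenty-fold, mixed 1:10; 24 h, 37 °C. MIC = no visible growth (binocular microscope). Streptomycin positive control, ethanol negative control; triplicate.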"}, "K. pneumoniae IT977": {"test_system": "K. pneumoniae IT977", "test": "Antimicrobial microdilution assay (MIC/MBC)", "format": "cell-based, Klebsiella pneumoniae", "conditions": "Klebsiella pneumoniae, IT977", "summary_of_the_method": "as §1"}, "P. aeruginosa MMA83": {"test_system": "P. aeruginosa MMA83", "test": "Antimicrobial microdilution assay (MIC/MBC)", "format": "cell-based, Pseudomonas aeruginosa", "conditions": "Pseudomonas aeruginosa, MMA83", "summary_of_the_method": "as §1"}, "P. aeruginosa IBRS P001 [2]": {"test_system": "P. aeruginosa IBRS P001", "test": "Antimicrobial microdilution assay (MIC/MBC)", "format": "cell-based, Pseudomonas aeruginosa", "conditions": "Pseudomonas aeruginosa, IBRSP001; for MIC: read-out: MIC", "summary_of_the_method": "as §1"}, "MRSA IBRS MRSA 011 [3]": {"test_system": "MRSA IBRS MRSA 011", "format": "cell-based, Staphylococcus aureus", "procedure": "For the catheter biofilm eradication assay, P. aeruginosa and MRSA were incubated in TSB with 2% glucose with 1 cm long catheters in 24-well plates at 37 °C for 24 h. […] Subsequently, the catheters were washed and treated, as described above."}, "[4]": {"test_system": "Methicillin resistant S. aureus IBRS MRSA 011", "test": "Antimicrobial microdilution assay (MIC/MBC)", "format": "cell-based, Staphylococcus aureus", "conditions": "Staphylococcus aureus, MRSA", "summary_of_the_method": "as §1"}, "[5]": {"test_system": "24 h old P. aeruginosa IBRS P001 biofilms", "test": "Biofilm eradication, eDNA assay", "format": "cell-based, Pseudomonas aeruginosa", "conditions": "MBC–4 MBC, Figure 5D", "procedure": "The quantity of eDNA was determined as previously described, with some modifications. […] Subsequently, the planktonic cells were removed, and the wells were washed with PBS. TE buffer (Tris-EDTA buffer solution) was added to the wells and content was mixed vigorously by pipetting. The samples were transferred to 1.5 mL tubes and centrifuged at 10,000× g for 10 min. After removal of the supernatant, the pellet was suspended in a TE buffer by vortexing. Absorbance of the supernatant (260 nm) was measured after centrifugation at 10,000× g for 15 min. We calculated the inhibition percentage of eDNA relative to an untreated control. The solvent treated sample was used as the control.\nThe bacterial cells were incubated in TSB enriched with 2% glucose in 96-well plates (Sarstedt, Germany) with adhesive bottom at 37 °C for 24 h. After incubation, wells were washed with PBS, and rutin (MBC–4 MBC) in TSB with 2% glucose was added. Incubation continued at 37 °C for another 24 h. The planktonic cells were removed.\nThe assays continued as described above for the crystal violet antibiofilm assay for the measurement of biofilm mass, biofilm MTT assay for the interference with cell viability, Congo red binding assay for estimation of exopolysaccharide production, and eDNA assay."}, "MRSA IBRS MRSA 011 [6]": {"test_system": "MRSA IBRS MRSA 011", "test": "Membrane permeability assay (nucleotide and protein leakage)", "format": "cell-based, Staphylococcus aureus", "conditions": "rutin MIC; more significant increase in absorbance at 260 and 280 nm after 90 min", "procedure": "(§2) The effect of rutin on membrane permeability (nucleotide and protein leakage) was evaluated as described earlier with some modifications. The culture of P. aeruginosa IBRS P001 and MRSA IBRS MRSA 011 was incubated overnight at 37 °C, washed, and suspended in 10 mM PBS in order to achieve the final density of 10^8 CFU/mL. Bacteria were incubated with rutin at a concentration equal to MIC for time intervals 0, 30, 60, and 90 min. Bacteria incubated with PBS were used as control. After incubation the mixture was filtered through a 0.22 μm pore size filter to remove […]. The optical density of the filtrate was measured at 260 and 280 nm with an Agilent/HP 8453 UV-Visible Spectrophotometer (Agilent Technologies, Santa Clara, CA, USA) at room temperature (25 °C)."}, "P. aeruginosa MTCC 2488": {"test_system": "P. aeruginosa MTCC 2488", "set-up": "method as in doi:10.1016/j.foodcont.2018.02.044", "conditions": "48 h incubation, cited from earlier work"}, "P. aeruginosa IBRS P001 [7]": {"test_system": "P. aeruginosa IBRS P001", "test": "Membrane permeability assay (nucleotide and protein leakage)", "format": "cell-based, Pseudomonas aeruginosa", "conditions": "rutin MIC; absorbance of released nucleic acids (260 nm) and proteins (280 nm) increased after 60 min", "procedure": "as §2"}, "[8]": {"conditions": "subcultivation, 24 h at 37 °C, read-out: MBC"}}, "note": "Like-named read-outs stand apart in the source and are kept apart here.", "data": [{"smiles": "C[C@@H]1O[C@@H](OC[C@H]2O[C@@H](Oc3c(-c4ccc(O)c(O)c4)oc4cc(O)cc(O)c4c3=O)[C@H](O)[C@@H](O)[C@@H]2O)[C@H](O)[C@H](O)[C@H]1O", "note": "[Rutin, rutin]", "values": [{"measurement": "reduction of CFU adhered to human keratinocytes", "setting": "P. aeruginosa IBRS P001 [1]; 0.5 MIC, 0.25 mg/mL", "result": 25, "unit": "%"}, {"measurement": "reduction of CFU adhered to human keratinocytes", "setting": "P. aeruginosa IBRS P001 [1]; rutin MIC", "result": 51, "unit": "%"}, {"measurement": "MIC", "setting": "K. pneumoniae Ni9; 37 °C, 24 h, read-out: MIC", "result": 1000, "unit": "µg/mL"}, {"measurement": "MBC", "setting": "K. pneumoniae Ni9; [8]", "result": 1000, "unit": "µg/mL"}, {"measurement": "MIC", "setting": "K. pneumoniae IT977; 37 °C, 24 h, read-out: MIC", "result": 1000, "unit": "µg/mL"}, {"measurement": "MBC", "setting": "K. pneumoniae IT977; [8]", "result": 1000, "unit": "µg/mL"}, {"measurement": "MIC", "setting": "P. aeruginosa MMA83; 37 °C, 24 h, read-out: MIC", "result": 500, "unit": "µg/mL"}, {"measurement": "MBC", "setting": "P. aeruginosa MMA83; [8]", "result": 500, "unit": "µg/mL"}, {"measurement": "MIC", "setting": "P. aeruginosa IBRS P001 [2]; 37 °C, 24 h", "result": 500, "unit": "µg/mL"}, {"measurement": "MIC", "setting": "P. aeruginosa IBRS P001 [2]; restated in the discussion", "result": 500, "unit": "µg/mL"}, {"measurement": "MBC", "setting": "P. aeruginosa IBRS P001 [2]; [8]", "result": 1000, "unit": "µg/mL"}, {"measurement": "catheter biofilm eradicated", "setting": "MRSA IBRS MRSA 011 [3]; 2 MBC, 24 h old biofilm", "result": 74.2, "unit": "%"}, {"measurement": "biofilm cells remained viable after the treatment", "setting": "MRSA IBRS MRSA 011 [3]; 24 h old catheter biofilm, concentration not printed (MBC-4MBC tested, probably 4 MBC)", "result": 9.6, "unit": "%"}, {"measurement": "MIC", "setting": "[4]; 37 °C, 24 h, read-out: MIC", "result": 500, "unit": "µg/mL"}, {"measurement": "MBC", "setting": "[4]; [8]", "result": 1000, "unit": "µg/mL"}, {"measurement": "levels of eDNA in the biofilm matrix, in words", "setting": "[5]", "result": "significantly reduced"}, {"measurement": "cell membrane integrity, in words", "setting": "MRSA IBRS MRSA 011 [6]", "result": "disrupted"}, {"measurement": "highest biofilm inhibition", "setting": "P. aeruginosa MTCC 2488; 400 µg/mL", "result": 45.33, "unit": "%"}, {"measurement": "biofilm inhibition", "setting": "P. aeruginosa MTCC 2488; sub-MIC concentrations 50–400 µg/mL", "result": "up to 50%"}, {"measurement": "cell membrane integrity, in words", "setting": "P. aeruginosa IBRS P001 [7]", "result": "obstructed P. aeruginosa IBRS P001 cell membrane integrity"}]}]}
